A short description of data set [1]: Stability studies of gallium-68 complexes in media (EtOH, human serum, saline, PBS). The class given is physicochemical. The settings on record: different media (summary statement). As to the method:
Gallium-68 stability studies against transmetallation (Fe, Cu, Ca, Mg), transchelation (EDTA, DTPA) as well as in HS, EtOH and saline (0.9% isotone NaCl-solution) were performed. 50 μl of the [^68Ga]Ga-DOTA.SA.FAPi labeling solution with > 95% radiochemical purity were added to 1 mL of the respective media. The measured time points for gallium-68 were 15, 30, 45, 60, 90, 120 min. HS (human male AB plasma, USA origin) was bought from Sigma Aldrich, PBS was purchased from Sigma Aldrich and 0.9% saline from B. Braun Melsungen AG (Melsungen, Germany).

The target of data set [2] is T1, human FAP (Homo sapiens, UniProt Q12884).
T1 construct: the human secretion signal was replaced with the HoneyBee mellitin secretion signal; HoneyBee mellitin secretion signal (replaces the native signal-anchor) (N); C-terminal tag of the BaculoDirect C-term kit (C); made in house; host or cells: Sf9 insect cells (baculovirus); purified from the supernatant
T1 sequence (Q12884 26-760 limits assumed): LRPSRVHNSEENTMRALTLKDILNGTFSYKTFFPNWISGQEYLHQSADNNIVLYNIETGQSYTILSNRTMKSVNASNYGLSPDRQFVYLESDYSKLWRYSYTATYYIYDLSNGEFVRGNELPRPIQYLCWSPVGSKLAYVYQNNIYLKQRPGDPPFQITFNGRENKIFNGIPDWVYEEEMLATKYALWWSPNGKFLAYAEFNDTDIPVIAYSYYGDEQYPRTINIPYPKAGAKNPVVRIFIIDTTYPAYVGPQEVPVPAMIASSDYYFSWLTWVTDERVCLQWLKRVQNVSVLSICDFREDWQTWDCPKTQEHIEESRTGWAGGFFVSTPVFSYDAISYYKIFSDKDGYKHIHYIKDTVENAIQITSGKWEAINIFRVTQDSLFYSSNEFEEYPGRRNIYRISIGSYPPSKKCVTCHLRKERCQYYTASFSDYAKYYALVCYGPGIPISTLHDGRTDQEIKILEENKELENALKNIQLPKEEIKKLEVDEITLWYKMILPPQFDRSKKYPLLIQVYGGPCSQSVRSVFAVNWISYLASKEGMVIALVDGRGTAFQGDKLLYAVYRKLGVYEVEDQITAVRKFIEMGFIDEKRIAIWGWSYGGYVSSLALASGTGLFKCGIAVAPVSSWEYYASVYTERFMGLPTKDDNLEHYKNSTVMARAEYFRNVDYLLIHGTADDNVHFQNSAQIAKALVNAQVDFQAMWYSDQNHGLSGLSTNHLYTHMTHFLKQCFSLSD
The experiment in a line: FAP inhibition assay (IC50, Z-Gly-Pro-AMC substrate). The class given is biochemical. Particulars: for IC50: Z-Gly-Pro-AMC 50 μM, pH 8, 15 min pre-incubation at 37 °C; for Selectivity index (IC50 PREP / IC50 FAP): ratio of the IC50 values for FAP and PREP. The source says: (§1) Enzymes: A gateway-entry clone for human FAP was purchased from Dharmacon (Accession number DQ891423) and the human secretion signal was replaced with the HoneyBee mellitin secretion signal. For transfection and expression of FAP in Sf9 insect cells, the C-terminal BaculoDirect kit from LifeTechnologies was used. The enzyme was purified from the supernatant of the insect cells using immobilized Ni-chelating chromatography (GE healthcare, Diegem, Belgium), followed by anion-exchange chromatography using a 1 mL HiTrap Q (GE healthcare, Diegem, Belgium). Human recombinant PREP was expressed in BL21(DE3) cells and purified using immobilized Co-chelating chromatography (GE healthcare) followed by anion-exchange chromatography on a 1 ml Mono Q column (GE healthcare).
Eight concentrations of inhibitors were tested. The final DMSO concentration was kept constant during the experiment to exclude any solvent effects. Inhibitors were pre-incubated with the enzyme for 15 min at 37 °C, afterwards the substrate was added and the velocities of AMC release were measured kinetically at λex = 380 nm, λem = 465 nm for at least 10 min at 37 °C. The Infinite 200 (Tecan Group Ltd.) micro-titer plate reader and the Magellan software were used for measurement and data processing respectively.
(§2) The data were fitted using a non-linear fit model in GraFit 7 software, according to the following equation: y=range/1+x/IC50^s where y is the value of the residual enzymatic activity compared to a non-inhibited sample, x is the final inhibitor concentration in the assay, s is the slope factor and the IC50 is the half maximal inhibitory concentration.

In data set [3] the target is T2, Human recombinant PREP (Homo sapiens, UniProt P48147).
T2 sequence (P48147 1-710): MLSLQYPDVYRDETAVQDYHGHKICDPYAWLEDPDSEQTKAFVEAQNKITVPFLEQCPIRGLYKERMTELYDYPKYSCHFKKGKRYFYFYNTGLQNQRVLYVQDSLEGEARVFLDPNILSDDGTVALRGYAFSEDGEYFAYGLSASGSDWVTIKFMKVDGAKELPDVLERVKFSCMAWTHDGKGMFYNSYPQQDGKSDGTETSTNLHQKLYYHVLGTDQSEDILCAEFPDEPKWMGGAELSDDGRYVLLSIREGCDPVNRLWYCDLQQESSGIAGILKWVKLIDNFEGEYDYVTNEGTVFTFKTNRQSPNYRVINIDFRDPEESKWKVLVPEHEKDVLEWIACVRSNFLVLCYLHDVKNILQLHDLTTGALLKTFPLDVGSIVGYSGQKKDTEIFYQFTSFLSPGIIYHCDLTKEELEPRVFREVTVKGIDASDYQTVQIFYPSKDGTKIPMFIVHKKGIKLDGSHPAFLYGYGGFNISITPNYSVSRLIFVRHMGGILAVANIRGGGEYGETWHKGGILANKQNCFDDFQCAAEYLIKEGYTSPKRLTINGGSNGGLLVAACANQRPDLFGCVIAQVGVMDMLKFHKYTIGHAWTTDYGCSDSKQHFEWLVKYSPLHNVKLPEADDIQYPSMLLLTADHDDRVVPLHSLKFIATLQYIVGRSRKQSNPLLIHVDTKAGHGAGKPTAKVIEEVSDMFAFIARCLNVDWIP
The data set can be described thus: PREP inhibition assay (IC50, N-succinyl-Gly-Pro-AMC substrate). The class given is biochemical. Particulars: N-succinyl-Gly-Pro-AMC 250 μM, pH 7.4, 15 min pre-incubation at 37 °C.
Text: as §1
Eight concentrations of inhibitors were tested. The final DMSO concentration is kept constant during the experiment to exclude any effects. Inhibitors were pre-incubated with the enzyme for 15 min at 37 °C, afterwards the substrate was added and the velocities of AMC release were measured kinetically at λex = 380 nm, λem = 465 nm for at least 10 min at 37 °C. The Infinite 200 (Tecan Group Ltd.) micro-titer plate reader and the Magellan software were used for measurement and data processing, respectively.
as §2

Data set [4] concerns FAP. Set-up: method as in originally published value. The settings on record: different FAP substrate (Ala-Pro-pNA); ref originally published value; cited from earlier work.
The test system of data set [5] is HT-1080 FAP. Set-up: method as in Lindner et al. [2018]. The settings on record: HT-1080 FAP tumor model, read from graphs; ref Lindner et al. [2018]; cited from earlier work.
The subject of data set [6] is PANC-1. Set-up: method as in Watabe et al. [2020]. The settings on record: read from graphs, ref Watabe et al. [2020], cited from earlier work.
In data set [7] the test system is MIA-PaCa-2. Set-up: method as in Watabe et al. [2020]. Particulars: MIA-PaCa-2 tumor model, read from graphs; ref Watabe et al. [2020]; cited from earlier work.
The mark [8] stands for this setting: PANC-1 / MIA-PaCa-2, one value given.

Usually IC50 stands for the concentration that gives 50% inhibition. In the case of `N#C[C@@H]1CC(F)(F)CN1C(=O)CNC(=O)c1ccnc2ccc(OCCCCNc3c(NCCNC(=O)CN4CCN(CC(=O)O)CCN(CC(=O)O)CCN(CC(=O)O)CC4)c(=O)c3=O)cc12` [DOTA.SA.FAPi, (S)-2,2′,2″-(10-(2-((2-((2-((4-((4-((2-(2-cyano-4,4-difluoropyrrolidin-1-yl)-2-oxo-ethyl)carbamoyl)quinolin-6-yl)oxy)butyl)amino)-3,4-dioxocyclobut-1-en-1-yl)amino)ethyl)amino)-2-oxoethyl)-1,4,7,10-tetraazacyclododecane-1,4,7-triyl) triacetic acid], in data set [1], the “Stability in different media, intact conjugate” value is listed as “more than 95%”. The IC50 in data set [2] was determined as 0.9 ± 0.1 nM; in data set [3], 5400 ± 300 nM. Moreover, the “Selectivity index (IC50 PREP / IC50 FAP)” value in data set [2] is listed as 6000.
As to `N#C[C@@H]1CC(F)(F)CN1C(=O)CNC(=O)c1ccnc2ccccc12` [UAMC1110], the IC50 in data set [4] was […].
`CN(CC(=O)O)C1(CCCCC(=O)NCCNc2c(NCCCCOc3ccc4nccc(C(=O)NCC(=O)N5CC(F)(F)C[C@H]5C#N)c4c3)c(=O)c2=O)CN(CC(=O)O)CCN(CC(=O)O)C1` [DATA^5m.SA.FAPi, (S)-2,2′-(6-((carboxymethyl)(methyl)amino)-6-(5-((2-((2-((4-((4-((2-(2-cyano-4,4-difluoropyrrolidin-1-yl)-2-oxoethyl)carbamoyl)quinolin-6-yl)oxy)butyl)amino)-3,4-dioxocyclobut-1-en-1-yl)amino)ethyl)amino)-5-oxopentyl)-1,4-diazepane-1,4-diyl) diacetic acid]: the “Stability in different media, intact conjugate” value in data set [1] is recorded as “more than 95%”. The IC50 was determined as 0.8 ± 0.2 nM in data set [2] and 1700 ± 100 nM in data set [3]. Moreover, the “Selectivity index (IC50 PREP / IC50 FAP)” value in data set [2] is recorded as 2113.
Consider `N#C[C@@H]1CC(F)(F)CN1C(=O)CNC(=O)c1ccnc2ccc(OCCCN3CCN(C(=O)CN4CCN(CC(=O)[O-])CCN(CC(=O)[O-])CCN(CC(=O)[O-])CC4)CC3)cc12.[68Ga+3]` [[^68Ga]Ga-FAPI-04], for which, in data set [5], the “SUVmean(60 min p.i.) Heart” value is on record as 0.16, the “SUVmean(60 min p.i.) Kidney” value is given as 0.33, the “SUVmean(60 min p.i.) Liver” value was 0.11 and the “SUVmean(60 min p.i.) Muscle” value is recorded as 0.06. Moreover, in data set [5], the “SUVmean(60 min p.i.) Tumor” value is on record as 0.45. Besides, in data set [6] (setting [8]), the “SUVmean(60 min p.i.) Heart” value is given as 0.17, the “SUVmean(60 min p.i.) Kidney” value is reported as 0.36, the “SUVmean(60 min p.i.) Liver” value is 0.67 and the “SUVmean(60 min p.i.) Muscle” value is given as 0.03. Moreover, in data set [6] (PANC-1 tumor model), the “SUVmean(60 min p.i.) Tumor” value is listed as 0.14. For the same molecule, the “SUVmean(60 min p.i.) Tumor” value in data set [7] is 0.11.

The values are drawn from publication PMC7391456, “Targeting fibroblast activation protein (FAP): next generation PET radiotracers using squaramide coupled bifunctional DOTA and DATA^5m chelators” (EJNMMI Radiopharmacy and Chemistry, 2020).
